Reference: patent US20230286973A1, “PROTEIN SECRETION INHIBITORS” (KEZAR LIFE SCIENCES, priority 2020, published 2023)
Where two headings read alike, the source gives them in different places.

What was measured:
[1] = Liver Microsome Stability Assay (human); conditions: human liver microsomes, with NADPH, 1.0 uM compound
Description: (§1) Stability of a compound was assessed in the presence of liver microsomes from various sources—mouse, rat, monkey and human liver microsomes. 1.0 uM compound, 0.4% DMSO in 0.1 M Potassium Phosphate with 1.0 mg/mL liver microsomes, were incubated at 37° C. with or without 1 mM NADPH. The samples were quenched at 0, and 30 minutes.

[2] = tested on: multiple myeloma cell line NCI-H929; assay: H929 Cell Viability Assay; format: cell-based, human; conditions: Homo sapiens, NCI-H929, 48 h, NCI-H929 cells, Celltiter-Glo
Method in brief: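 Viability is scored by CellTiter-Glo luminescence following a 48-hour treatment at 37° C. Data for structures shown without stereochemistry refer to stereoisomer mixtures.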

[3] = tested on: TNFα-FL/Gaussia Luciferase; assay: Dox Induced TNFα-FL-Gluc Assay; format: cell-based; conditions: for IC50: 24 hr Dox induction, 293FRT/TO cells, read-out: 24 hr Dox Inducible TNFaFLGluc 293FRT/TO: Mean IC50; for 24 hr Dox Inducible TNFaFLGluc 293FRT/TO: TNF/PD1: ratio of TNFaFLGluc IC50 to PD1ssGluc IC50
Method in brief: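 Doxycycline-inducible Gaussia luciferase-tagged full-length TNFα (1-233) was expressed in stable Flp-In 293 T-REx cells. Compounds were co-added with doxycycline and incubated at 37 °C, 5% CO2.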

[4] = tested on: HER3-ss+4aa/Gaussia Luciferase; assay: Dox-Induced Her3-ss-Gluc Assay; format: cell-based; conditions: 24 hr Dox induction, 293FRT/TO cells, read-out: 24 hr Dox Inducible Her3(ss + 4)Gluc 293FRT/TO: Mean IC50
Method in brief: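 Reporter line: Flp-In 293 T-REx, T-REx-regulated HER3-ss+4aa fused to Gaussia luciferase. Compound co-added with doxycycline after overnight plating, 37° C., 5% CO2.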

[5] = Liver Microsome Stability Assay (monkey); conditions: monkey liver microsomes, with NADPH, 1.0 uM compound
Description: as §1

[6] = Liver Microsome Stability Assay (mouse); conditions: mouse liver microsomes, with NADPH, 1.0 uM compound
Description: as §1

[7] = tested on: PD1-ss+10aa/Gaussia Luciferase; assay: Dox-Induced PD1-ss-Gluc Assay; format: cell-based; conditions: 24 hr Dox induction, 293FRT/TO cells, read-out: 24 hr Dox Inducible PD1ssGluc 293FRT/TO: Mean IC50
Method in brief: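 Gaussia luciferase fused downstream of the PD1 signal peptide plus 10 residues was expressed on doxycycline induction in stably transfected Flp-In 293 T-REx cells. Compounds were added with doxycycline and incubated at 37 °C, 5% CO2.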

[8] = Liver Microsome Stability Assay (rat); conditions: rat liver microsomes, with NADPH, 1.0 uM compound
Description: as §1

[9] = tested on: multiple myeloma cell line U266B1; assay: U266 Cell Viability Assay; format: cell-based, human; conditions: Homo sapiens, U-266, 48 h, U266B1 cells, Celltiter-Glo
Method in brief: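 Viability is measured as luciferase signal from CellTiter-Glo following a 48-hour incubation with compound at 37° C. under 5% CO2. Where structures lack drawn stereochemistry, values refer to stereoisomer mixtures.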

[10] = tested on: IL-2-FL/Gaussia Luciferase; assay: Dox Induced IL2-FL-Gluc Assay; format: cell-based; conditions: for IC50: 24 hr Dox induction, 293FRT/TO cells, read-out: 24 hr Dox Inducible IL2FLGluc 293FRT/TO: Mean IC50; for 24 hr Dox Inducible IL2FLGluc 293FRT/TO: IL2/PD1: ratio of IL2FLGluc IC50 to PD1ssGluc IC50
Method in brief: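 Doxycycline induces an IL-2(1-153)–Gaussia luciferase fusion in a stable Flp-In 293 T-REx line. Compound exposure runs alongside induction at 37° C.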

[11] = '<=>' given where both are I.A.

Liver Microsome Stability (Multiple Species): Human - % Remaining after 30 min w/NADPH [1] [%]	EC50 [2] [nM]	IC50 ([3]; mean) [nM]	IC50 ([4]; mean) [nM]	Liver Microsome Stability (Multiple Species): Monkey - % Remaining after 30 min w/NADPH [5] [%]	Liver Microsome Stability (Multiple Species): Mouse - % Remaining after 30 min w/NADPH [6] [%]	IC50 ([7]; mean) [nM]	Liver Microsome Stability (Multiple Species): Rat - % Remaining after 30 min w/NADPH [8] [%]	EC50 [9] [nM]	IC50 ([10]; mean) [nM]	IC50 [3] [nM]	IC50 [4] [nM]	IC50 [7] [nM]	IC50 [10] [nM]	SMILES	24 hr Dox Inducible TNFaFLGluc 293FRT/TO: TNF/PD1 [3, 11]	24 hr Dox Inducible IL2FLGluc 293FRT/TO: IL2/PD1 [10, 11]	24 hr Dox Inducible TNFaFLGluc 293FRT/TO: TNF/PD1 [3]	24 hr Dox Inducible IL2FLGluc 293FRT/TO: IL2/PD1 [10]
0.19	17300	6030	1450	0.23	2.25	531	1.2	14300	2370					O=C(Nc1nc([C@H]2CCCN(c3ccccn3)C2)cs1)c1cccn1Cc1ccncc1 [Compound E45, (S)-N-(4-(1-(pyridin-2-yl)piperidin-3-yl)thiazol-2-yl)-1-(pyridin-4-ylmethyl)-1H-pyrrole-2-carboxamide]	11.4	4.5		
23.6	20700	9740	2240	13.1	3.03	545	12.6	> 25000	2290					N#CC[C@@H](O)Cn1cccc1C(=O)Nc1nc([C@H]2CCCN2c2ccccc2)cs1 [Compound C112, 1-((R)-3-cyano-2-hydroxypropyl)-N-(4-((R)-1-phenylpyrrolidin-2-yl)thiazol-2-yl)-1H-pyrrole-2-carboxamide]	17.9	4.2		
2.88	> 25000			1.04	2.61		0.46	> 25000		> 25000	> 25000	466	> 25000	Cc1cnc(/C=C/c2csc(NC(=O)c3cccn3Cc3ccncc3)n2)o1 [Compound B35, (E)-N-(4-(2-(5-methyloxazol-2-yl)vinyl)thiazol-2-yl)-1-(pyridin-4-ylmethyl)-1H-pyrrole-2-carboxamide]			>53.7	>54
0.19	22800			0.04	6.38		2.02	> 25000		> 25000	> 25000	72.4	12100	O=C(Nc1nc(/C=C/c2cn(C3CCOCC3)cn2)cs1)c1cccn1Cc1ccnc(F)c1 [Compound B92, (E)-1-((2-fluoropyridin-4-yl)methyl)-N-(4-(2-(1-(tetrahydro-2H-pyran-4-yl)-1H-imidazol-4-yl)vinyl)thiazol-2-yl)-1H-pyrrole-2-carboxamide]			>345	170
8.13	> 25000	> 25000	8930	78.9	26.7	8080	3.26	> 25000	6900					O=C(Nc1nc([C@H]2CCCN2c2ccccc2)cs1)c1cccn1CCc1nnn[nH]1 [Compound C16, (R)-1-(2-(1H-tetrazol-5-yl)ethyl)-N-(4-(1-phenylpyrrolidin-2-yl)thiazol-2-yl)-1H-pyrrole-2-carboxamide]	>3.09	0.85		
0.27	10200			0.47	16.5		5.38	13100		6460	945	268	1960	O=C(Nc1nc(/C=C/c2coc(C3CCCCC3)n2)cs1)c1cccn1Cc1ccncc1 [Compound B39, (E)-N-(4-(2-(2-cyclohexyloxazol-4-yl)vinyl)thiazol-2-yl)-1-(pyridin-4-ylmethyl)-1H-pyrrole-2-carboxamide]			24.1	7.3

The remaining lines, values behind:

SMILES	Liver Microsome Stability (Multiple Species): Human - % Remaining after 30 min w/NADPH [1] [%]	EC50 [2] [nM]	IC50 ([3]; mean) [nM]	IC50 ([4]; mean) [nM]	Liver Microsome Stability (Multiple Species): Monkey - % Remaining after 30 min w/NADPH [5] [%]	Liver Microsome Stability (Multiple Species): Mouse - % Remaining after 30 min w/NADPH [6] [%]	IC50 ([7]; mean) [nM]	Liver Microsome Stability (Multiple Species): Rat - % Remaining after 30 min w/NADPH [8] [%]	EC50 [9] [nM]	IC50 ([10]; mean) [nM]	IC50 [3] [nM]	IC50 [4] [nM]	IC50 [7] [nM]	IC50 [10] [nM]	24 hr Dox Inducible TNFaFLGluc 293FRT/TO: TNF/PD1 [3, 11]	24 hr Dox Inducible IL2FLGluc 293FRT/TO: IL2/PD1 [10, 11]	24 hr Dox Inducible TNFaFLGluc 293FRT/TO: TNF/PD1 [3]	24 hr Dox Inducible IL2FLGluc 293FRT/TO: IL2/PD1 [10]
CNC(=O)N1CC(Oc2ccc(N3CCC[C@@H]3c3csc(NC(=O)c4cccn4Cc4ccnc(F)c4)n3)cc2)C1 [Compound A125, (R)-1-((2-fluoropyridin-4-yl)methyl)-N-(4-(1-(4-((1-(methylcarbamoyl)azetidin-3-yl)oxy)phenyl)pyrrolidin-2-yl)thiazol-2-yl)-1H-pyrrole-2-carboxamide]	26.2	1210			10.1	45.1		24.9	> 25000		322	28.6	22.5	65			14.3	2.9
O=C(Nc1nc([C@H]2CCCN2c2ccc(O[C@@H]3CCCNC3)cc2)cs1)c1cccn1Cc1ccnc(F)c1 [Compound A87, 1-((2-fluoropyridin-4-yl)methyl)-N-(4-((R)-1-(4-(((R)-piperidin-3-yl)oxy)phenyl)pyrrolidin-2-yl)thiazol-2-yl)-1H-pyrrole-2-carboxamide]	51.1	6310			32.6	75.6		61.8	8830		21500	1150	636	2580			33.8	4.1
C[C@@H](N)c1ccc(N2CCC[C@@H]2c2csc(NC(=O)c3cccn3Cc3ccncc3)n2)cc1 [Compound A67, N-(4-((R)-1-(4-((R)-1-aminoethyl)phenyl)pyrrolidin-2-yl)thiazol-2-yl)-1-(pyridin-4-ylmethyl)-1H-pyrrole-2-carboxamide]	28.9	562			40.4	82.3		51.9	6860		862	65.1	23.6	55			36.4	2.3
